Data taken from ChEMBL document CHEMBL1148517, “A new class of selective, non-basic 5-HT2A receptor antagonists” (Bioorg Med Chem Lett, 2006).

Key:
[1] = molecular target: T1, 5-hydroxytryptamine receptor 2A (Homo sapiens, UniProt P28223); experiment: Binding affinity to human 5HT2A
[2] = molecular target: T2, 5-hydroxytryptamine receptor 2C (Homo sapiens, UniProt P28335); experiment: Binding affinity to human 5HT2C
T2 sequence (P28335 whole entry): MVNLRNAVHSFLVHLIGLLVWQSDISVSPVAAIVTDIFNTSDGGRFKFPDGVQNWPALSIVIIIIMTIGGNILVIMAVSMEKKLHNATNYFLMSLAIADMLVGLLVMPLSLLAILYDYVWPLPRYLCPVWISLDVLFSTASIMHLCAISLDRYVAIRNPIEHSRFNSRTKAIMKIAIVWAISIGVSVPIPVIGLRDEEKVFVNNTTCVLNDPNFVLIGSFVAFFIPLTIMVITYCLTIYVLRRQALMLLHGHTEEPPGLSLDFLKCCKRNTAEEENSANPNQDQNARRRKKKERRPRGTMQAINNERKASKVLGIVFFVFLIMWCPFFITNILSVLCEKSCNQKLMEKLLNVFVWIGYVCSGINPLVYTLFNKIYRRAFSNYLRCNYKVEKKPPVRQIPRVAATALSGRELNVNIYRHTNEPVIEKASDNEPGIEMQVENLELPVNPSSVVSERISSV

D(2) dopamine receptor = D(2) dopamine receptor (Homo sapiens, UniProt P14416); experiment: Binding affinity to human D2 receptor
[3] = molecular target: Voltage-gated inwardly rectifying potassium channel KCNH2 (Homo sapiens, UniProt Q12809); experiment: Binding affinity to human IKr
[4] = molecular target: T1, 5-hydroxytryptamine receptor 2A; experiment: Antagonist activity against human 5HT2A transfected in CHO cells by aurora beta lactamase reporter gene assay; format: functional, cell-based

Chain of D(2) dopamine receptor (P14416 whole entry): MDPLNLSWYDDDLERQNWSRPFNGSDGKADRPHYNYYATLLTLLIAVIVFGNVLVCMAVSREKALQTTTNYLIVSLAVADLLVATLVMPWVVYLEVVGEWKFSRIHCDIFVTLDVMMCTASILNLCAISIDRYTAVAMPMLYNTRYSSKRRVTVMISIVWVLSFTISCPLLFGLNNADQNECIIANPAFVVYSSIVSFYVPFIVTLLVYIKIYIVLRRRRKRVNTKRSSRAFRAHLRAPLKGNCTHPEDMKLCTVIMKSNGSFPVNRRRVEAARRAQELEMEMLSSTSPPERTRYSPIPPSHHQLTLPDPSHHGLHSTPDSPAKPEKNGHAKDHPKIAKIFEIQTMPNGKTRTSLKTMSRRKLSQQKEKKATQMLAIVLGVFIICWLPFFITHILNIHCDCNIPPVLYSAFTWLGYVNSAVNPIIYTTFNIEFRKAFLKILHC
T1 sequence (P28223 whole entry): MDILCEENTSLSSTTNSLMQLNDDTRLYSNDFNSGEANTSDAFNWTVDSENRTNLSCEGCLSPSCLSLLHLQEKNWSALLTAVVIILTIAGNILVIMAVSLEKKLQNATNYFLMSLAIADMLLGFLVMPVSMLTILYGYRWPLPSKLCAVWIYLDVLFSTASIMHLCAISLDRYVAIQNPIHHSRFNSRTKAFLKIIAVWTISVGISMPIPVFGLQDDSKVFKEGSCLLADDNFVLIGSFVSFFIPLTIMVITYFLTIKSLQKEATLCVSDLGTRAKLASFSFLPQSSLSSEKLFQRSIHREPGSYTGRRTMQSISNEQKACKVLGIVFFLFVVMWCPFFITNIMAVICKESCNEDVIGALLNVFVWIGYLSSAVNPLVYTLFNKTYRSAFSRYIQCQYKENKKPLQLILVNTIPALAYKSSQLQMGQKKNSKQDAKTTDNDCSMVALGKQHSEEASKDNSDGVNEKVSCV
Chain of Voltage-gated inwardly rectifying potassium channel KCNH2 (Q12809 whole entry): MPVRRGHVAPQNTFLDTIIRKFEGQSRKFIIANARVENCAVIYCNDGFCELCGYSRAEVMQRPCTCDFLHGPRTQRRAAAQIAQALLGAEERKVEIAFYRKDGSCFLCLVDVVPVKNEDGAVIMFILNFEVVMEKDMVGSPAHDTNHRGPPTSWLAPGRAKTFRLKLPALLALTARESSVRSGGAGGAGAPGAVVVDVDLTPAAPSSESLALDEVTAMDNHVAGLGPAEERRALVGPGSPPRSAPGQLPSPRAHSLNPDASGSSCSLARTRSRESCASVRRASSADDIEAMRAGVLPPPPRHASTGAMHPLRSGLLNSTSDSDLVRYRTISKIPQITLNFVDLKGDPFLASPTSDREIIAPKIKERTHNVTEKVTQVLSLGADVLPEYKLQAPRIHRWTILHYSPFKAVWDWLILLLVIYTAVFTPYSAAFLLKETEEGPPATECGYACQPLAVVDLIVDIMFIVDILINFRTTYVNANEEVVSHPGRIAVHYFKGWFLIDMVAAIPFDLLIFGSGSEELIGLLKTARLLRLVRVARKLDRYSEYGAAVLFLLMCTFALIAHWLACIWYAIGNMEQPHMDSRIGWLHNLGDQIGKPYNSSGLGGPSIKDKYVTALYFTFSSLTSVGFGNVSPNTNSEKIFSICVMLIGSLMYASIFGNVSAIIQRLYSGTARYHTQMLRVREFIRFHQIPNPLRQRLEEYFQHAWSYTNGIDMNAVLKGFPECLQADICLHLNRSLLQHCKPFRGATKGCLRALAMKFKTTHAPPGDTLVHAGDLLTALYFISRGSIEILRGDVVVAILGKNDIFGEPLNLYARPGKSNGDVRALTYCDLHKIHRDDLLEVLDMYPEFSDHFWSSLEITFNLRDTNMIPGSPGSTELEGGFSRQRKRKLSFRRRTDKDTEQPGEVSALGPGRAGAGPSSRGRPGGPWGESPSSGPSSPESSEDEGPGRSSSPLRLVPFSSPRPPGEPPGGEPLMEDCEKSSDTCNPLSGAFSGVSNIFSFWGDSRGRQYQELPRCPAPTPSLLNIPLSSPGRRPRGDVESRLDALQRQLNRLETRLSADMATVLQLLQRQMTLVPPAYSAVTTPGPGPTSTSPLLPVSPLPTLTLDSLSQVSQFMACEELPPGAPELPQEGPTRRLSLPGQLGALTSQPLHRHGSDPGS

Row | Compound | Ki [1] [µM] | Ki [2] [µM] | Ki (D(2) dopamine receptor) [µM] | IC50 [4] [µM] | Ki [3] [µM]
1 | O=S(=O)(c1ccc(F)cc1)N1CCC(F)(CCc2ccc(F)cc2F)CC1 | 0.024 | 0.806 | > 1 | – | > 9
2 | N#Cc1c[nH]c2c(C(=O)N3CCN(CCc4ccc(F)cc4F)CC3)cccc12 | 0.00087 | 0.557 | > 1 | – | 1.27
3 | O=S(=O)(c1ccc(F)cc1)N1CCN(CCc2ccc(F)cc2F)CC1 | 0.0044 | 3.78 | > 1 | – | 4.87
4 | O=S(=O)(c1ccc(F)cc1)N1CC=C(CCc2ccc(F)cc2F)CC1 | 0.022 | 0.449 | > 1 | – | > 9
5 | O=S(=O)(c1ccc(F)cc1)N1CCC(CCc2ccc(F)cc2F)CC1 | 0.052 | 2.03 | > 1 | – | > 9
6 | O=S(=O)(c1ccc(F)cc1)N1CCC(O)(CCc2ccc(F)cc2F)CC1 | 0.19 | > 4 | > 1 | – | > 9
7 | O=S(=O)(c1cccc(F)c1)N1CCC(CCc2ccc(F)cc2F)CC1 | 0.014 | 0.997 | > 1 | 0.319 | > 9

The next compounds have a lower Ki [2] than those just listed; values first:

Row | Ki [1] [µM] | Ki [2] [µM] | Ki (D(2) dopamine receptor) [µM] | IC50 [4] [µM] | Compound | Ki [3] [µM]
8 | 0.0081 | 0.07 | > 1 | – | N#Cc1ccccc1S(=O)(=O)N1CCC(CCc2ccc(F)cc2F)CC1 | > 9
9 | 0.0017 | 0.096 | > 1 | – | O=S(=O)(c1cccc2ccccc12)N1CCC(CCc2ccc(F)cc2F)CC1 | > 9
10 | 0.0029 | 0.028 | > 1 | – | O=C(c1cccc2cccnc12)N1CCC(CCc2ccc(F)cc2F)CC1 | > 9
11 | 0.0099 | 0.239 | > 1 | – | O=S(=O)(c1ccccc1F)N1CCC(CCc2ccc(F)cc2F)CC1 | > 9
12 | – | 0.11 | > 1 | – | O=C(c1ccccc1F)N1CCC(CCc2ccc(F)cc2F)CC1 | > 9
13 | 0.0061 | 0.404 | > 1 | – | O=S(=O)(c1ccccc1Cl)N1CCC(CCc2ccc(F)cc2F)CC1 | > 9
14 | 0.0021 | 0.184 | > 1 | – | O=S(=O)(c1cccc2cccnc12)N1CCC(CCc2ccc(F)cc2F)CC1 | > 9
